# Laboratory results from patent publication US20170050966A1, “INHIBITING THE TRANSIENT RECEPTOR POTENTIAL A1 ION CHANNEL” (HYDRA BIOSCIENCES, INC., priority 2014, published 2017).
# Where two headings read alike, the source gives them in different places.
# Key:
# human TRPA1 (hTRPA1) = target: T1, human TRPA1 (hTRPA1) (Homo sapiens, UniProt O75762); experiment: Inhibition of human TRPA1, whole-cell patch clamp; type: cell-based; conditions: antagonist effect, whole cell patch configuration; read-out: hTRPA1
# T1 construct: expressed in transfected cells
# Description: Data for TRPA1 inhibition was obtained by this method for the indicated compounds of Formula (I), with the relevant data included in Table 14 below. All currents were recorded in whole-cell configuration using EPC-9 and EPC-10 amplifiers and Patchmaster software (HEKA). […] The standard pipette solution consisted of 140 mM CsAsp, 10 mM EGTA, 10 mM HEPES, […], 1.91 mM CaCl2, and up to 0.3 mM Na2GTP, with pH adjusted to 7.2 with CsOH. In addition, a solution containing 145 mM CsCl, 10 mM HEPES, 10 mM EGTA, and up to 0.3 mM Na2GTP and 1 mM MgCl2 (pH 7.2 adjusted with CsOH) can be used. The standard bath solution contained 150 mM NaCl, 10 mM HEPES, 10 mM glucose, 4.5 mM KCl, 1 mM EGTA, 3 mM MgCl2, with pH adjusted to 7.4 with NaOH. In some instances, 2 mM CaCl2 was added in place of EGTA and the concentration of MgCl2 was reduced to 1 mM.
# Data were collected either by continuous recordings at −60 mV or by applying voltage ramps from a holding potential of 0 mV every 4 s. Continuous recordings were collected at 400 Hz and digitally filtered off-line at 10 Hz for presentation. Voltage ramps were applied from −100 mV to 100 mV over the course of 400 ms, and data were collected at 10 kHz and filtered at […]. Inward and outward currents were analyzed from the ramps at −80 and 80 mV, respectively. Liquid junction potential correction was not used.
# Solutions were switched using a gravity-fed continuous focal perfusion system. To achieve rapid temperature changes, two temperature control, and perfusion systems were employed simultaneously. For temperatures greater than or equal to 22° C., a Warner Instruments bipolar temperature controller (TC-344B) and inline heater (SHM-8) were used. […] Temperatures were confirmed using a thermistor (Warner Instruments, TA-29), with temperatures at the recorded cell estimated to be within +/−2° C. of those reported.
# The antagonist effects of compounds of Formula (I) against human TRPA1 (“hTRPA1”) in a whole cell patch configuration were evaluated using the in vitro assay protocol described above.
# [1] = Kinetic solubility in buffered solutions; type: physicochemical; conditions: aqueous buffer, kinetic from dmso stock, 24 hours ambient
# Description: The solubilities of the compounds of Formula (I) were tested using the procedure outlined in Kerns, E. H., J Pharm Sci (2001) 90:1838-1858, incorporated herein by reference and described below. Data for solubility was obtained by this method for compounds of Formula (I) and included in Table 3. The chromatographic data was performed by HPLC using an Xbridge Shield RP18 column with the following column dimensions: 4.6×30 mm, 3.5 μm. The mobile phase consisted of deionized water (MPA) with trifluoroacetic acid added in at 0.1% (v/v) (MPC) and HPLC-grade acetonitrile (MPB). The mobile phase flow rate was 2.5 mL/min with the column and sampling operating at ambient temperature. UV detection was set to 280 nm.
# Samples for analysis of the compounds of Formula (I) were prepared at a % v/v=1/19 (i.e., 10 μL of the stock solution into 190 μL of buffer) by spiking stock solutions of the compounds of Formula (I) into buffered solutions. Three buffered solution systems were prepared: pH 4.0 prepared from 50 mM sodium acetate in a 5% dextrose in water solution, pH 7.4 prepared from 75 mM sodium phosphate in a 1:1 ratio of sterilized water for injection to a 5% dextrose in water solution, and pH 9.0 prepared from 50 mM sodium bicarbonate in a 1:2 ratio of sterilized water for injection to a 5% dextrose in water solution. The samples were incubated on a microplate shaker at 300 rpm for 24 hours at ambient temperature. Following incubation, the samples were centrifuged for five minutes at 13 k rpm at ambient temperature. The resulting supernantant was extracted for HPLC analysis.
# [2] = Metabolic stability in liver microsomes; type: in vitro ADME, human; conditions: 1 μM test compound; for half-life at 1 μM: human, liver microsomes, 37° C.
# Description: (§1) Metabolic stability of the compounds of Formula (I) was determined by standard liver microsome assays. Briefly, metabolic stability was tested by adding the compound to be tested dissolved in DMSO to human, dog, or rat liver microsomes. Assays were run with a starting concentration of 1 μM test compound. The reaction was initiated by addition of nicotinamide adenine dinucleotide phosphate[…] (NADPH) regeneration components at 37° C., at which time an aliquot was immediately quenched in an ice-cold acetonitrile/methanol/water solution. Reaction mixture was incubated at 37° C. on a shaker, and additional aliquots were taken at 7, 15, 30 and 60 minutes. Following quench and centrifugation, samples were analyzed on HPLC/MS/MS.
# [3] = Metabolic stability in liver microsomes; type: in vitro ADME
# Description: as §1
# [4] = sodium acetate buffer, pH 4.0, 50 mM sodium acetate, read-out: pH 4.0 solubility
# [5] = sodium bicarbonate buffer, pH 9.0, 50 mM sodium bicarbonate, read-out: pH 9.0 solubility
# [6] = sodium phosphate buffer, pH 7.4, 75 mM sodium phosphate, read-out: pH 7.4 solubility
# T1 sequence (O75762 whole entry): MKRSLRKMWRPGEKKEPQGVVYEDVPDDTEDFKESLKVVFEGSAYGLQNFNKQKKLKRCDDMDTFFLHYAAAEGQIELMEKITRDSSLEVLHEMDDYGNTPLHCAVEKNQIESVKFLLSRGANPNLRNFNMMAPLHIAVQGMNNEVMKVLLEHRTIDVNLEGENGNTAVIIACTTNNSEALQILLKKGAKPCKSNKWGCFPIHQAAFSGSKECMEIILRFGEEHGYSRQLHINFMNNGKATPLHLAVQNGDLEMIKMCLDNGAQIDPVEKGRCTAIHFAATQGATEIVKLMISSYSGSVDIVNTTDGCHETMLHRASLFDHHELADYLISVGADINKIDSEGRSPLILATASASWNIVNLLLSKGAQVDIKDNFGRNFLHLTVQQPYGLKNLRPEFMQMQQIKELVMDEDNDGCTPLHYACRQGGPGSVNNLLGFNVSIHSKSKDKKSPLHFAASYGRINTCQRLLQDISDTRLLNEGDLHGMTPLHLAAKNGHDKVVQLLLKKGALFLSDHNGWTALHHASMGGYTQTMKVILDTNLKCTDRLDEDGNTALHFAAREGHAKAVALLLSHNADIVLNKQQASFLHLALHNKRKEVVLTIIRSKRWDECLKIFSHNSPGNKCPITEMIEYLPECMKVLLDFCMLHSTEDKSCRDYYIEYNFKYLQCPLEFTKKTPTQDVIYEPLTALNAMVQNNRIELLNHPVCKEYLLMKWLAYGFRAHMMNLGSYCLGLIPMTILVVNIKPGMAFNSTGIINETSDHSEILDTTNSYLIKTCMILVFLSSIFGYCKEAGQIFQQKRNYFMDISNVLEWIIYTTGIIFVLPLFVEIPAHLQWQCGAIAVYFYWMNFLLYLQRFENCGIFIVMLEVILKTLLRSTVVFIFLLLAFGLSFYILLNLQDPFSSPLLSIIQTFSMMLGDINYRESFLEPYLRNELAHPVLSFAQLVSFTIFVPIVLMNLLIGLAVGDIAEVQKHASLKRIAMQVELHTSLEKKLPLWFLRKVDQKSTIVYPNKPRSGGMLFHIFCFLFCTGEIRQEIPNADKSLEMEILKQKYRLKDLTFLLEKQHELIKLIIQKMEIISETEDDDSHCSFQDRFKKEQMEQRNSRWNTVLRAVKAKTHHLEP
smiles,measurement,setting,value
"Cn1c(=O)c2c(ncn2CC(=O)Nc2ccnc(-c3cnc(N4CC5CC5C4)nc3)n2)n(C)c1=O (stereo not drawn) [Compound 10, N-(2′-(3-azabicyclo[3.1.0]hexan-3-yl)-[2,5′-bipyrimidin]-4-yl)-2-(1,3-dimethyl-2,6-dioxo-2,3-dihydro-1H-purin-7(6H)-yl)acetamide]",IC50,human TRPA1 (hTRPA1),93.5 nM
"Cn1c(=O)c2c(ncn2CC(=O)Nc2ccnc(-c3cnc(N4CC(F)(F)C4)nc3)n2)n(C)c1=O [Compound 7, N-(2′-(3,3-difluoroazetidin-1-yl)-[2,5′-bipyrimidin]-4-yl)-2-(1,3-dimethyl-2,6-dioxo-2,3-dihydro-1H-purin-7(6H)-yl)acetamide]",IC50,human TRPA1 (hTRPA1),922 nM
"C[C@@H](C(=O)Nc1ccnc(-c2cnc(N3CC(F)(F)C3)nc2)n1)n1cnc2c1c(=O)n(C)c(=O)n2C [Compound 9, (S)—N-(2′-(3,3-difluoroazetidin-1-yl)-2,5′-bipyrimidin-4-yl)-2-(1,3-dimethyl-2,6-dioxo-2,3-dihydro-1H-purin-7(6H)-yl)propanamide]",IC50,human TRPA1 (hTRPA1),462 nM
"[2H]C([2H])([2H])n1c(=O)n(C)c(=O)c2c1ncn2CC(=O)Nc1ccnc(-c2cnc(N3CCC[C@@H]3C)nc2)n1 [Compound 25, N-{2-[2-((2S)-2-methylpyrrolidinyl)pyrimidin-5-yl]pyrimidin-4-yl}-2-(1-methyl-3-methyl-d3-2,6-dioxo(1,3,7-trihydropurin-7-yl))acetamide]",IC50,human TRPA1 (hTRPA1),107 nM
same,solubility kinetic at 24 h,[1]; [4],45 µg/mL
same,solubility kinetic at 24 h,[1]; [5],11 µg/mL
same,solubility kinetic at 24 h,[1]; [6],29 µg/mL
same,Human Liver Microsomes Hepatic Clearance,[2],8 mL/min/kg
same,half-life at 1 μM,[2],43 min
"C[C@H]1CCCN1c1ncc(-c2nccc(NC(=O)Cn3cnc4c3c(=O)[nH]c(=O)n4C)n2)cn1 [Compound 24, (S)-2-(3-methyl-2,6-dioxo-2,3-dihydro-1H-purin-7(6H)-yl)-N-(2′-(2-methylpyrrolidin-1-yl)-[2,5′-bipyrimidin]-4-yl)acetamide]",IC50,human TRPA1 (hTRPA1),436 nM
"C[C@@H](C(=O)Nc1ccnc(-c2cnc(N3CCC(F)(F)CC3)nc2)n1)n1cnc2c1c(=O)n(C)c(=O)n2C [Compound 14, (S)—N-(2′(4,4-difluoropiperidin-1-yl)-2,5′-bipyrimidin-4-yl)-2-(1,3-dimethyl-2,6-dioxo-2,3-dihydro-1H-purin-7(6H)-yl)propanamide]",IC50,human TRPA1 (hTRPA1),94.8 nM
"Cn1c(=O)c2c(ncn2CC(=O)Nc2ccnc(-c3cnc(N4CCC(F)(F)CC4)nc3)n2)n(C)c1=O [Compound 8, N-(2′-(4,4-difluoropiperidin-1-yl)-[2,5′-bipyrimidin]-4-yl)-2-(1,3-dimethyl-2,6-dioxo-2,3-dihydro-1H-purin-7(6H)-yl)acetamide]",IC50,human TRPA1 (hTRPA1),71.9 nM
same,half-life at 1 μM,"[3]; rat liver microsomes, both sexes, read-out: Half-Life Both sexes",115 min
same,half-life at 1 μM,[2],38.4 min
"C[C@H](C(=O)Nc1ccnc(-c2cnc(N3CCC[C@H]3C(F)(F)F)nc2)n1)n1cnc2c1c(=O)n(C)c(=O)n2C [Compound 3, (R)-2-(1,3-dimethyl-2,6-dioxo-2,3-dihydro-1H-purin-7(6H)-yl)-N-(2′-((S)-2-(trifluoromethyl)pyrrolidin-1-yl)-[2,5′-bipyrimidin]-4-yl)propanamide]",IC50,human TRPA1 (hTRPA1),2290 nM
"C[C@H]1CCCN1c1ncc(-c2nccc(NC(=O)[C@H](C)n3cnc4c3c(=O)n(C)c(=O)n4C)n2)cn1 [Compound 21, (S)-2-(1,3-dimethyl-2,6-dioxo-2,3-dihydro-1H-purin-7(6H)-yl)-N-(2′-((S)-2-methylpyrrolidin-1-yl)-[2,5′-bipyrimidin]-4-yl)propanamide]",IC50,human TRPA1 (hTRPA1),51 nM
same,solubility kinetic at 24 h,[1]; [4],34 µg/mL
same,solubility kinetic at 24 h,[1]; [5],10.5 µg/mL
same,solubility kinetic at 24 h,[1]; [6],20 µg/mL
same,Female Hepatic Clearance,"[3]; dog liver microsomes, female",8 mL/min/kg
same,half-life at 1 μM,"[3]; dog liver microsomes, female, read-out: Female Half-Life",66 min
same,Hepatic Clearance,[3]; rat liver microsomes,11 mL/min/kg
same,Male Hepatic Clearance,"[3]; rat liver microsomes, male",34 mL/min/kg
same,half-life at 1 μM,"[3]; rat liver microsomes, male, read-out: Male Half-Life",16 min
same,Human Liver Microsomes Hepatic Clearance,[2],10.5 mL/min/kg
same,half-life at 1 μM,[2],30 min
C[C@H](C(=O)Nc1ccnc(-c2cnc(N3CCC[C@@H]3C(F)(F)F)nc2)n1)n1cnc2c1c(=O)n(C)c(=O)n2C [Compound 28],IC50,human TRPA1 (hTRPA1),65.9 nM
"Cn1c(=O)c2c(ncn2CC(=O)Nc2ccnc(-c3cnc(N4CC(C(F)(F)F)C4)nc3)n2)n(C)c1=O [Compound 12, 2-(1,3-dimethyl-2,6-dioxo-1,2,3,6-tetrahydropurin-7-yl)-N-(2-(2-(3-(trifluoromethyl)azetidin-1-yl)pyrimidin-5-yl)pyrimidin-4-yl)acetamide]",IC50,human TRPA1 (hTRPA1),387 nM
"C[C@H](C(=O)Nc1ccnc(-c2cnc(N3CCC[C@@H]3C)nc2)n1)n1cnc2c1c(=O)n(C)c(=O)n2C [Compound 22, (R)-2-(1,3-dimethyl-2,6-dioxo-2,3-dihydro-1H-purin-7(6H)-yl)-N-(2′-((S)-2-methylpyrrolidin-1-yl)-[2,5′-bipyrimidin]-4-yl)propanamide]",IC50,human TRPA1 (hTRPA1),> 3200 nM
same,solubility kinetic at 24 h,[1]; [4],50 µg/mL
same,solubility kinetic at 24 h,[1]; [5],70 µg/mL
same,solubility kinetic at 24 h,[1]; [6],89 µg/mL
same,Human Liver Microsomes Hepatic Clearance,[2],12 mL/min/kg
same,half-life at 1 μM,[2],26 min
"Cn1c(=O)c2c(ncn2CC(=O)Nc2ccnc(-c3cnc(N4CCC[C@H]4C(F)(F)F)nc3)n2)n(C)c1=O [Compound 27, (S)-2-(1,3-dimethyl-2,6-dioxo-2,3-dihydro-1H-purin-7(6H)-yl)-N-(2′-(2-(trifluoromethyl)pyrrolidin-1-yl)-[2,5′-bipyrimidin]-4-yl)acetamide]",IC50,human TRPA1 (hTRPA1),255 nM
"Cn1c(=O)c2c(ncn2CC(=O)Nc2ccnc(-c3cnc(N4CCC(C(F)(F)F)C4)nc3)n2)n(C)c1=O (stereo not drawn) [Compound 11, 2-(1,3-dimethyl-2,6-dioxo-2,3-dihydro-1H-purin-7(6H)-yl)-N-(2′-(3-(trifluoromethyl)pyrrolidin-1-yl)-[2,5′ bipyrimidin]-4-yl)acetamide]",IC50,human TRPA1 (hTRPA1),124 nM
"CC(C(=O)Nc1ccnc(-c2cnc(N3CCCC[C@@H]3C)nc2)n1)n1cnc2c1c(=O)n(C)c(=O)n2C (stereo partly drawn) [Compound 23, 2-(1,3-dimethyl-2,6-dioxo-2,3-dihydro-1H-purin-7(6H)-yl)-N-(2′-((S)-2-methylpiperidin-1-yl)-2,5′-bipyrimidin-4-yl)propanamide]",IC50,human TRPA1 (hTRPA1),60.7 nM
same,solubility kinetic at 24 h,[1]; [4],20 µg/mL
same,solubility kinetic at 24 h,[1]; [5],14 µg/mL
same,solubility kinetic at 24 h,[1]; [6],31 µg/mL
same,Human Liver Microsomes Hepatic Clearance,[2],18 mL/min/kg
same,half-life at 1 μM,[2],4 min
